From article PMC7318222, “A Family of Water‐Immiscible, Dipolar Aprotic, Diamide Solvents from Succinic Acid” (Chemsuschem, 2020)

Molecular target: T1, AR (Homo sapiens, UniProt P10275)
T1 construct: expression construct for the full-length human receptor under investigation; expressed in transfected cells; host or cells: human U2-OS cells (ATCC HTB-96), stably transfected
T1 sequence (P10275 1-920): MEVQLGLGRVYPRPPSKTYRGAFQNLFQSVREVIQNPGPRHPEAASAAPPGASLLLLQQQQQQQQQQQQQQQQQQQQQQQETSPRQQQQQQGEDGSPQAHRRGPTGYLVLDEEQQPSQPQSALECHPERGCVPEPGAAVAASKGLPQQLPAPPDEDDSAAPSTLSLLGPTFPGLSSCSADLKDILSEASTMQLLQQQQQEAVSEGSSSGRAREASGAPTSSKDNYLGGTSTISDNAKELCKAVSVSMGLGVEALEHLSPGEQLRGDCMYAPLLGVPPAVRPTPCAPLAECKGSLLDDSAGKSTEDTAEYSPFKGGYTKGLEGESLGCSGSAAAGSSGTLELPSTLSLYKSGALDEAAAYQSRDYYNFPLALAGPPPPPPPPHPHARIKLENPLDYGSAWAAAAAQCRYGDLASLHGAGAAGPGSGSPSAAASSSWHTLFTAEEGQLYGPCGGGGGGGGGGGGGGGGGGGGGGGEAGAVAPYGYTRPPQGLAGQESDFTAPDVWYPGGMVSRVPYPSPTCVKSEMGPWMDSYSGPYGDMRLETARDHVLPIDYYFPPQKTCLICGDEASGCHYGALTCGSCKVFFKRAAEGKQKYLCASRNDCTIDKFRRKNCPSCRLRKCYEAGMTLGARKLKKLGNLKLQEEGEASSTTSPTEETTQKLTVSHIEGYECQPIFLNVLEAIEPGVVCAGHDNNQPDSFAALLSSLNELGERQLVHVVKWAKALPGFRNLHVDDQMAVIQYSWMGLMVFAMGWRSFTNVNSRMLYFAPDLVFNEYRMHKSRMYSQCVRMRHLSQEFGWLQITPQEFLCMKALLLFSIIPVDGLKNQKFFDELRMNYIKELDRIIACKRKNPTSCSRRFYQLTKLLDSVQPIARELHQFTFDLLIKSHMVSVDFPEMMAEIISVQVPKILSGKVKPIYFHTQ
Assay: AR-anti CALUX reporter gene assay (antagonistic mode)
Assay type: cell-based
Design: key: –: no effect observed up to the highest test concentration
Conditions: PC20, 24 h exposure
Description: Polyarylethersulfone of 55,000 Da were obtained from INGE.BASF, Germany. The CALUX cell lines have been described previously.[1] They are based on human U2-OS cells (ATCC, HTB-96) stably transfected with an expression construct for the full-length human receptor under investigation, and a reporter construct consisting of multimerized responsive elements for the cognate receptor coupled to a minimal promoter element (TATA) and a luciferase gene. Cells were maintained as described previously,[2] using cell culture media and supplements from Fisher Scientific as described in the experimental procedures section. […]
In vitro reporter gene assays
The automated CALUX assays were carried out similarly as described earlier,[12] with some adaptations. In brief, the assay was performed in CO2 independent medium (Fisher Scientific, […]
with 30 µl cell suspension/well. After 24 h, exposure medium was prepared. A dilution series in 0.5log unit increments of each test compound (in DMSO) was added to a 96-wells plate containing assay medium (2% v/v). Of this exposure mixture, 30 µl was added to the assay plates containing the CALUX cells, resulting in a final DMSO concentration of 1%. Additionally, DMSO blanks and a full dose response curve of the relevant reference compound were included on each plate. All samples were tested in triplicate. The preparation of the compound dilution series as well as the exposure of the cells were performed on a Hamilton StarLET liquid handling robot coupled to a Cytomat incubator.
Directly after exposure, plates were sealed with non-breathing plate seals (Plate sealer, easy seal […]
After 24 h the exposure medium was removed using an EL406 washer-dispenser (BioTek) and 10 µl/well triton lysisbuffer was added by the EL406.
Subsequently, the luciferase signal was measured in a luminometer (InfinitePro coupled to a Connect Stacker, both TECAN). In order to be able to detect receptor antagonism, several assays were also performed in antagonistic mode. The assay procedure was as described above, with the only exception that the EC50 concentration of the reference agonist was present during the exposure.
The luminometer data was analysed as follows; the average of the triplicate wells was determined, […]

Structure (SMILES)	LEC AR‐anti
CCCCN1CCCC1=O [NBP, N‐Butylpyrrolidinone, reference compound]	–
CCCCN(CCCC)C(=O)CCC(=O)N(CCCC)CCCC [TBSA, N,N,N′,N′‐tetrabutylsuccindiamide]	–
CCCCN(CC)C(=O)CCC(=O)N(CC)CCCC [EBSA, N,N′‐diethyl‐N,N′‐dibutylsuccindiamide]	–
CCCCN(C)C(=O)CCC(=O)N(C)CCCC [MBSA, N,N′‐dimethyl‐N,N′‐dibutylsuccindiamide]	–
